Experimental data taken from patent US4826973A, “Delta form of aztreonam and preparation thereof” (priority 1985, dated 1989).

What was measured:
[1] = Physical and processing (bulk) properties of crystalline forms; assay type: physicochemical; conditions: TABLE II, crystalline forms of aztreonam
[2] = Intrinsic dissolution rate of crystalline forms; assay type: physicochemical; conditions: TABLE II, crystalline forms of aztreonam
[3] = as described for Ser. No. 282,636; cited from earlier work
[4] = compared with α-form or simple salts of the compound; storage prior to conversion to β-form

Structure (SMILES) | Density [1] | Flowability [1] | Surface Area [1] | Intrinsic Dissolution Rate [2] | Hygroscopicity (background, earlier application) [3] | Shelf life [4]
C[C@H]1[C@H](NC(=O)/C(=N\OC(C)(C)C(=O)O)c2csc(N)n2)C(=O)N1S(=O)(=O)O [α-Form, [3S-[3α(Z)4β]]-3-[[(2-amino-4-thiazolyl)[(1-carboxy-1-methylethoxy)imino]acetyl]amino]-4-methyl-2-oxo-1-azetidinesulfonic acid] | low | poor | high | slow |  | 
C[C@H]1[C@H](NC(=O)/C(=N\OC(C)(C)C(=O)O)c2csc(N)n2)C(=O)N1S(=O)(=O)O [β-Form, [3S-[3α(Z),4β]]-3-[[(2-amino-4-thiazolyl)-[(1-carboxy-1-methylethoxy)imino]acetyl]amino]-4-methyl-2-oxo-1-azetidinesulfonic acid] | high | good | low | fast | substantially non-hygroscopic | 
C[C@H]1[C@H](NC(=O)/C(=N\OC(C)(C)C(=O)O)c2csc(N)n2)C(=O)N1S(=O)(=O)O [γ-Form] | low | poor | high | fast |  | 
C[C@H]1[C@H](NC(=O)/C(=N\OC(C)(C)C(=O)O)c2csc(N)n2)C(=O)N1S(=O)(=O)O [δ-Form, [3S-[3α(Z),4β]]-3-[[(2-amino-4-thiazolyl)[(1-carboxy-1-methylethoxy)imino]acetyl]amino]-4-methyl-2-oxo-1-azetidinesulfonic acid] | high | good | low | fast |  | greater than that of the α-form, or for that matter simple salts of the compound
